# In ChEMBL document CHEMBL1201862, “PubChem BioAssay data set” (2004):
#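 Dose response: 5 concentrations. Exposure: 48 h. Format: 96-well plates. Endpoint: linear interpolation; highest concentration if not reached. GI50 is the concentration that inhibits growth by half.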 Active and inactive are the calls of the source. No stated cut-off is given here; in the data, active = GI50 up to about 1.1 µM and inactive = higher.
# Columns and labels:
# Assay in all cases: inhibition of tumour cell growth, NCI panel, 48 h
# CAKI-1 = tested on: CAKI-1
# COLO 205 = tested on: COLO 205
# DLD-1 = tested on: DLD-1
# DMS-273 = tested on: DMS-273
# HL-60 = tested on: HL-60
# HOP-62 = tested on: HOP-62
# OVCAR-3 = tested on: OVCAR-3
# OVCAR-5 = tested on: OVCAR-5
# SF-295 = tested on: SF-295
# SF-539 = tested on: SF-539
# SN12C = tested on: SN12C
# SNB-19 = tested on: SNB-19
# SNB-75 = tested on: SNB-75
# UACC-257 = tested on: UACC-257
# UACC-62 = tested on: UACC-62
# UO-31 = tested on: UO-31
# A498 = tested on: A498
# HCT-116 = tested on: HCT-116
# DU-145 = tested on: DU-145
# MCF7 = tested on: MCF7
SMILES,GI50 (CAKI-1),GI50 (COLO 205),GI50 (DLD-1),GI50 (DMS-273),GI50 (HL-60),GI50 (HOP-62),GI50 (OVCAR-3),GI50 (OVCAR-5),GI50 (SF-295),GI50 (SF-539),GI50 (SN12C),GI50 (SNB-19),GI50 (SNB-75),GI50 (UACC-257),GI50 (UACC-62),GI50 (UO-31),GI50 (A498),GI50 (HCT-116),GI50 (DU-145),GI50 (MCF7)
[O-][S+]1[C@H](c2ccccc2)c2c(-c3ccccc3)sc(-c3ccccc3)c2[C@@H]1c1ccccc1 (some centres undefined),15.2 µM (inactive),23.1 µM (inactive),33 µM (inactive),> 100 µM (inactive),4.31 µM (inactive),> 100 µM (inactive),> 100 µM (inactive),3.66 µM (inactive),> 100 µM (inactive),> 100 µM (inactive),25.3 µM (inactive),77.1 µM (inactive),12.4 µM (inactive),> 100 µM (inactive),39.6 µM (inactive),65.6 µM (inactive),–,–,–,–
CCOc1ccc2nc(NC(=O)C(=O)C(C(=O)c3ccccc3F)C3OC(=O)c4ccccc43)sc2c1 (centres undefined),31.8 µM (inactive),15.6 µM (inactive),25.3 µM (inactive),19.1 µM (inactive),16.8 µM (inactive),23.5 µM (inactive),–,–,–,10.3 µM (inactive),16.4 µM (inactive),14.5 µM (inactive),15.1 µM (inactive),41.3 µM (inactive),14.6 µM (inactive),18.4 µM (inactive),25.8 µM (inactive),17.6 µM (inactive),–,–
O=C1C2=C(c3ccccc31)C(c1ccccc1Cl)N1C(=O)CSC1=N2 (centres undefined),> 100 µM (inactive),> 100 µM (inactive),> 100 µM (inactive),> 100 µM (inactive),45.6 µM (inactive),> 100 µM (inactive),87.3 µM (inactive),> 100 µM (inactive),83.4 µM (inactive),> 100 µM (inactive),> 100 µM (inactive),> 100 µM (inactive),39.4 µM (inactive),> 100 µM (inactive),59.4 µM (inactive),54 µM (inactive),> 100 µM (inactive),87.3 µM (inactive),–,–
Cn1c(=O)c2nc(N3CCCCC3)cnc2n(C)c1=O,> 100 µM (inactive),> 100 µM (inactive),> 100 µM (inactive),–,> 100 µM (inactive),> 100 µM (inactive),> 100 µM (inactive),> 100 µM (inactive),> 100 µM (inactive),> 100 µM (inactive),> 100 µM (inactive),> 100 µM (inactive),> 100 µM (inactive),> 100 µM (inactive),> 100 µM (inactive),> 100 µM (inactive),> 100 µM (inactive),> 100 µM (inactive),–,–
O=C(O)CN1CCN(CC(=O)O)CCN(CC(=O)O)CC1,8890 µM (inactive),2.57 µM (inactive),–,–,1.69 µM (inactive),> 100 µM (inactive),> 94.6 µM (inactive),> 32 µM (inactive),37.5 µM (inactive),> 25.3 µM (inactive),> 100 µM (inactive),> 100 µM (inactive),12.6 µM (inactive),58.7 µM (inactive),7.98 µM (inactive),83.8 µM (inactive),> 33.6 µM (inactive),3.7 µM (inactive),> 100 µM (inactive),5.65 µM (inactive)
CO[C@H]1ON=C(c2c(C)cc(C)cc2C)[C@@H]1C1(c2ccccc2)ON=C(c2c(C)cc(C)cc2C)O1 (some centres undefined),–,> 100 µM (inactive),> 100 µM (inactive),> 100 µM (inactive),46.3 µM (inactive),–,–,> 100 µM (inactive),> 100 µM (inactive),> 100 µM (inactive),> 100 µM (inactive),> 100 µM (inactive),–,> 100 µM (inactive),> 100 µM (inactive),> 100 µM (inactive),–,> 100 µM (inactive),–,–
C#CC[N+](CCO)(CCO)CCCCCCCCCCCCCCCCCC,5.87 µM (inactive),11.2 µM (inactive),9.25 µM (inactive),4.9 µM (inactive),1.55 µM (inactive),11.4 µM (inactive),13.5 µM (inactive),14.8 µM (inactive),7.76 µM (inactive),11.4 µM (inactive),16.4 µM (inactive),5.92 µM (inactive),4.16 µM (inactive),15.8 µM (inactive),11 µM (inactive),15.1 µM (inactive),17.2 µM (inactive),8.41 µM (inactive),–,14.8 µM (inactive)
CC(C)(C)OC(=O)NC1CCC(C(C)(C)C)CC1 (centres undefined),–,> 65.5 µM (inactive),> 100 µM (inactive),> 51.2 µM (inactive),15.2 µM (inactive),> 91 µM (inactive),58.6 µM (inactive),> 100 µM (inactive),26.5 µM (inactive),> 100 µM (inactive),> 77.8 µM (inactive),95.7 µM (inactive),40.7 µM (inactive),19.5 µM (inactive),37.4 µM (inactive),59.2 µM (inactive),> 100 µM (inactive),43.1 µM (inactive),–,44.5 µM (inactive)
C=C(/C=C/C=C(\C)CCC=C(C)C)[C@@H]1CC[C@]2([C@H](CCCO)/C(=C(/C)C=O)CC[C@]2(C)O)[C@@H]1O,28 µM (inactive),11 µM (inactive),18.4 µM (inactive),14.6 µM (inactive),11.5 µM (inactive),–,–,61.8 µM (inactive),15.6 µM (inactive),12.6 µM (inactive),17.1 µM (inactive),22.2 µM (inactive),91.6 µM (inactive),22.6 µM (inactive),–,19.5 µM (inactive),–,–,–,–
NC(CSC1(c2ccc(Cl)cc2)c2ccccc2-c2ccccc21)C(=O)O (centres undefined),33.5 µM (inactive),15.5 µM (inactive),–,–,6.4 µM (inactive),18.7 µM (inactive),17.4 µM (inactive),30.3 µM (inactive),15.3 µM (inactive),20.9 µM (inactive),19.1 µM (inactive),21.3 µM (inactive),22.2 µM (inactive),15.9 µM (inactive),15.4 µM (inactive),28.7 µM (inactive),17.1 µM (inactive),16.6 µM (inactive),34.5 µM (inactive),17.6 µM (inactive)
O=C(Nc1cccc2ccccc12)Oc1ccccc1C1CCCCC1,–,> 10 µM (inactive),15.2 µM (inactive),21.2 µM (inactive),27.2 µM (inactive),19 µM (inactive),18.6 µM (inactive),17.3 µM (inactive),16.3 µM (inactive),17.5 µM (inactive),16 µM (inactive),53.6 µM (inactive),13.9 µM (inactive),15.5 µM (inactive),15.9 µM (inactive),16.1 µM (inactive),17.6 µM (inactive),17.7 µM (inactive),–,–
C=C1C(=O)OC2C=C(C)CC3C=C(CCC=C(C)CCC12)C(=O)O3 (centres undefined),54.7 µM (inactive),53.1 µM (inactive),54.5 µM (inactive),68.1 µM (inactive),15.7 µM (inactive),114 µM (inactive),56.8 µM (inactive),101 µM (inactive),79.4 µM (inactive),84.5 µM (inactive),69 µM (inactive),122 µM (inactive),92.5 µM (inactive),43.1 µM (inactive),54.2 µM (inactive),105 µM (inactive),73.1 µM (inactive),33.1 µM (inactive),–,47.5 µM (inactive)
C/C=C(\C)C(=O)OC1C2C(C)C(=O)OC2C(O)C(C)C2C=CC(=O)C21C (centres undefined),13 µM (inactive),12.7 µM (inactive),–,–,3.24 µM (inactive),18.2 µM (inactive),10.8 µM (inactive),19.5 µM (inactive),14.7 µM (inactive),9.27 µM (inactive),14.9 µM (inactive),13.2 µM (inactive),15.8 µM (inactive),12.7 µM (inactive),10.5 µM (inactive),14.8 µM (inactive),16.1 µM (inactive),9.59 µM (inactive),10.9 µM (inactive),7.85 µM (inactive)
CC(=O)OC1C(O)C(C)OC(OC(=O)C2CCC3C(C2)OC2(CC(OC(=O)/C=C/c4ccccc4)C(C)CO2)C32CO2)C1OC1OC(C)C(O)C(O)C1O (centres undefined),2.08 µM (inactive),0.0341 µM (active),0.335 µM (active),0.0416 µM (active),0.0336 µM (active),0.0794 µM (active),0.0578 µM (active),0.091 µM (active),0.0776 µM (active),0.0448 µM (active),0.0514 µM (active),0.0399 µM (active),0.0468 µM (active),0.0325 µM (active),0.039 µM (active),7.78 µM (inactive),0.0702 µM (active),0.038 µM (active),–,0.0325 µM (active)
CC1(C)CC[C@]2(C(=O)O)CC[C@]3(C)C(=CC[C@@H]4[C@@]5(C)CC[C@@H]6OC(C)(C)OC[C@@]6(C)[C@@H]5CC[C@]43C)[C@H]2C1,9.91 µM (inactive),11.3 µM (inactive),–,–,8.51 µM (inactive),10.1 µM (inactive),4.54 µM (inactive),16.8 µM (inactive),5.18 µM (inactive),15.1 µM (inactive),3.13 µM (inactive),17.6 µM (inactive),11 µM (inactive),13.2 µM (inactive),10.4 µM (inactive),12.1 µM (inactive),15.4 µM (inactive),5.33 µM (inactive),9.86 µM (inactive),> 10 µM (inactive)
CC(C)(C)OC(=O)NC(Cc1c[nH]cn1)C(=O)N1CCCC1C(N)=O (centres undefined),> 100 µM (inactive),> 100 µM (inactive),–,–,> 100 µM (inactive),> 100 µM (inactive),> 100 µM (inactive),> 100 µM (inactive),> 100 µM (inactive),> 100 µM (inactive),> 100 µM (inactive),> 100 µM (inactive),> 100 µM (inactive),> 100 µM (inactive),> 100 µM (inactive),> 100 µM (inactive),> 100 µM (inactive),> 100 µM (inactive),> 100 µM (inactive),> 100 µM (inactive)
